Converted amounts (≈) assume the structure as drawn.
System: Campylobacter pylori 8005
Experiment: in vitro antimicrobial activity, agar plate dilution method (MIC)
Format: cell-based
Conditions: Helicobacter pylori, 48 h, Brucella Agar containing 5% horse lysed blood, 37° C., 10% carbon dioxide gas, 2 days, inoculum 10^7 cells/ml, read-out: minimal inhibitory concentration (MIC)

MIC: 0.39 µg/mL (≈ 1.13 µM)
Compound: COc1ccc2[nH]c([S+]([O-])Cc3ncc(C)c(OC)c3C)nc2c1 (stereo not shown) [omeprazole, 5-methoxy-2-[[(4-methoxy-3,5-dimethyl-2-pyridinyl)methyl]-sulfinyl]-1H-benzimidazole]

Source: patent US5093342A, “Use of omeprazole as an antimicrobial agent” (priority 1989, dated 1992)
